# Assay results taken from patent US20040147562A1, “Methods of treating conditions associated with an EDG-1 receptor” (priority 2002, published 2004).
# Experiments:
# human Edg-1 receptors = experiment: Intracellular calcium (FLIPR) assay, HTC cells expressing Edg-1; type: cell-based; conditions: Edg-1 relative to other Edg receptors
# Protocol: The compounds were tested in HTC cells expressing human Edg-1 receptors. […] The compounds were tested in this recombinant system first, and subsequently tested in cell lines expressing Edg-1 (in addition to other Edg receptors).
# […] receptors such as Edg-1, couple to calcium effector pathways, and result in increases in intracellular calcium following receptor activation (An, 1998, J. Cell Biochem. Supp 30-31:147-157). This biological response lends itself to a very efficient, high-throughput screen using a Fluorescence Imaging Plate Reader (FLIPR; Molecular Devices, Sunnyvale, Calif.). The FLIPR system is a real-time, cell-based assay system with continuous fluorescence detection using a cooled CCD camera. The FLIPR system was used to develop an Edg-1 receptor screen. Rat hepatoma cells stably expressing Edg-1/3i3 chimera or Edg-1 and Gqi were plated on 384-well plates and loaded with a calcium dye loading kit (Molecular Devices, Sunnyvale, Calif.) for 1 hour at room temperature. Cells were then placed on the FLIPR^384 (Molecular Devices, Sunnyvale, Calif.) and excited by an argon laser at 488 nm. The data for the entire 384-well plate was updated every second. An integrated robotic pipettor allowed for simultaneous compound addition into each individual well in the plate.
# Edg-6 = target: T1, Edg-6 (Homo sapiens, UniProt O95977); experiment: Intracellular calcium (FLIPR) assay, HTC cells expressing Edg-6; type: cell-based
# T1 construct: expressed in transfected cells; host or cells: HTC rat hepatoma cells
# T1 sequence (O95977 1-384): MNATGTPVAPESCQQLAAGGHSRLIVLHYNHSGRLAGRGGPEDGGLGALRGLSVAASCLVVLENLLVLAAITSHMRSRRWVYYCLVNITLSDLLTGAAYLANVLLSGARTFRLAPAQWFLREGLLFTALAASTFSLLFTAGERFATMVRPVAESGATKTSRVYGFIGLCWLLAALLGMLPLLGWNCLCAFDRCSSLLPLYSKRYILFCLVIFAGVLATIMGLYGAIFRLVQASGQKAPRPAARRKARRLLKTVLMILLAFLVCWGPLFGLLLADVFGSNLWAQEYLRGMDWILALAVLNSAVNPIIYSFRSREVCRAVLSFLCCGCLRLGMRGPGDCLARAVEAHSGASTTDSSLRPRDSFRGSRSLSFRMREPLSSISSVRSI
# [1] = test system: mouse splenic CD4 T cells; experiment: Lymphocyte migration in mouse dorsal air-pouch model; type: in vivo; conditions: lavage after 24 hours, FIG. 15
# Protocol: To test migration of mouse T cells in vivo, the ability of exodus-2 to attract mouse lymphocytes was assessed in the mouse dorsal air-pouch model. In these experiments, 0.5 ml 1 μM exodus-2 was introduced into a dorsal air-pouch produced by injecting 5 ml of filtered air subcutaneously. Mouse splenic CD4 T cells were fluorescently labeled with FM-DiI (Molecular Probes, Inc., Eugene, Oreg.), then treated with S1P (1 μM), 102, or 104. The treated CD4T cells were introduced into the peritoneal cavity. After 24 hours, lavage (1 ml) from the dorsal air pouch was assayed for fluorescence.
# Edg-2 = target: T2, Edg-2 (Homo sapiens, UniProt Q92633); experiment: Intracellular calcium (FLIPR) assay, HTC cells expressing Edg-2; type: cell-based
# T2 construct: expressed in transfected cells; host or cells: HTC rat hepatoma cells
# T2 sequence (Q92633 whole entry): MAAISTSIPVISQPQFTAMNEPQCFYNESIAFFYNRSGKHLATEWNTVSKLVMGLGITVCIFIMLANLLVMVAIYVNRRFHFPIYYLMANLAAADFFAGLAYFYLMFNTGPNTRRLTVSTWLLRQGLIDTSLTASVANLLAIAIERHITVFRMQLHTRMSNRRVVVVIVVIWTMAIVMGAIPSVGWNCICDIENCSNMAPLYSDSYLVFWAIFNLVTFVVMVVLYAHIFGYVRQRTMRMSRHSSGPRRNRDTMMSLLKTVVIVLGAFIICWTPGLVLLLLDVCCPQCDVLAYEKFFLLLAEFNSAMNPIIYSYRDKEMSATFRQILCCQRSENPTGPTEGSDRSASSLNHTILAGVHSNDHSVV
# Edg-8 = target: T3, Edg-8 (Homo sapiens, UniProt Q9H228); experiment: Intracellular calcium (FLIPR) assay, HTC cells expressing Edg-8; type: cell-based
# T3 construct: expressed in transfected cells; host or cells: HTC rat hepatoma cells
# T3 sequence (Q9H228 whole entry): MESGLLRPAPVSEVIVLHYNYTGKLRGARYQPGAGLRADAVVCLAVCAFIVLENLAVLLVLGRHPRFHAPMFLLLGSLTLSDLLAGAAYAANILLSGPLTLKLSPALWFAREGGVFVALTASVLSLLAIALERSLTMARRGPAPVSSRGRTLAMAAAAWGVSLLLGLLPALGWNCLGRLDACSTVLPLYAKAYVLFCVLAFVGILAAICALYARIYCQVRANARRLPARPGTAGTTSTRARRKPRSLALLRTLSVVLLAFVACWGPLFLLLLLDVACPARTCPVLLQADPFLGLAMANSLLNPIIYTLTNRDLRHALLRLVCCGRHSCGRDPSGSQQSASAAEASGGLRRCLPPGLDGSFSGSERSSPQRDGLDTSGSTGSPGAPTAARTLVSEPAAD
# Edg-5 = target: T4, Edg-5 (Homo sapiens, UniProt O95136); experiment: Intracellular calcium (FLIPR) assay, HTC cells expressing Edg-5; type: cell-based
# T4 construct: expressed in transfected cells; host or cells: HTC rat hepatoma cells
# T4 sequence (O95136 whole entry): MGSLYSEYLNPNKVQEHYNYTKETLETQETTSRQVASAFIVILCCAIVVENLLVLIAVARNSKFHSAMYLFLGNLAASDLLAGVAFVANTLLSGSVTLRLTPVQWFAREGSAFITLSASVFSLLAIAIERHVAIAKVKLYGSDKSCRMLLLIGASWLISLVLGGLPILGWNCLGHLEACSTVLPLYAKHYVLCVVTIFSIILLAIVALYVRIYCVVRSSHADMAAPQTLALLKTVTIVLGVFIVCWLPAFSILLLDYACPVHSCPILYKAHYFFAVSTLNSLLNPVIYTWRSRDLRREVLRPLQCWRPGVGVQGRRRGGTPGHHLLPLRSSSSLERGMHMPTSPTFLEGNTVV
# [2] = test system: human umbilical vein endothelial cells; experiment: Trans-matrigel chemotaxis / invasion assay with HUVECs (modified Boyden chamber); type: cell-based
# Protocol: In addition to Edg-1, other Edg receptors are also implicated in S1P stimulated chemotaxis, including Edg-3 and Edg-6. To assess the relative roles of the Edg-1 receptors and Edg-3 receptors in S1P stimulated chemotaxis, the ability of S1P to evoke trans-matrigel chemotaxis was tested in the presence of the Edg-1 antagonist 101, the Edg-3 antagonist 301, and the combination of 101 and 301. These experiments were performed according to the migration and invasion assay protocols described in Section 7.12, below. The Edg-3 antagonist 301, 3-Methyl-2-phenyl-quinoline-4-carboxylic acid 4-fluoro-benzylamide, is extensively described in co-pending U.S. application Ser. No. 10/390,426, which is incorporated by reference in its entirety. 301 is identified as compound 101 in U.S. application Ser. No. 10/390,426. Further, 301 is commercially available from Specs (The Netherlands) as compound number AK-968/12971392.
# S1P is a strong chemoattractant to human PBMCs. […] Several migration assays were performed to test this hypothesis and to determine the effect of Edg-1 agonists and antagonists on S1P mediated chemotaxis. The migration assays were performed according to the protocol described in Section 7.12, below. The results of theses assays are presented in FIG. 6, FIG. 7, FIG. 8, FIG. 9 and FIG. 13.
# Cells were plated in a 24 well format using Fluoroblok filter insert plates ([…] pore size) or Fluoroblok matrigel coated filter insert plates (Becton Dickinson, San Diego, Calif.). The assay was a modified Boyden Chamber assay in which a cell suspension (1×10^5 cells/ml) was prepared in serum free medium and added to the top chamber. LPA or S1P (doses ranged from 0.1-10 μM in serum free medium) was added to the bottom chamber. Following a 20-24 hour incubation period, the number of cells migrating or invading into the lower chamber was quantitated by transferring the filter insert into a fresh 24-well plate containing 4 μg/ml calcein AM (Molecular Probes, Sunnyvale, Calif.) in Hank's Balanced Salt Solution and staining for one hour.
# Detection was via fluorescent readout at 450 nm excitation/530 nm emission using a fluorimeter. The level of fluorescence correlated with cell number.
# Edg-3 = target: T5, Edg-3 (Homo sapiens, UniProt Q99500); experiment: Intracellular calcium (FLIPR) assay, HTC cells expressing Edg-3; type: cell-based
# T5 construct: expressed in transfected cells; host or cells: HTC rat hepatoma cells
# T5 sequence (Q99500 whole entry): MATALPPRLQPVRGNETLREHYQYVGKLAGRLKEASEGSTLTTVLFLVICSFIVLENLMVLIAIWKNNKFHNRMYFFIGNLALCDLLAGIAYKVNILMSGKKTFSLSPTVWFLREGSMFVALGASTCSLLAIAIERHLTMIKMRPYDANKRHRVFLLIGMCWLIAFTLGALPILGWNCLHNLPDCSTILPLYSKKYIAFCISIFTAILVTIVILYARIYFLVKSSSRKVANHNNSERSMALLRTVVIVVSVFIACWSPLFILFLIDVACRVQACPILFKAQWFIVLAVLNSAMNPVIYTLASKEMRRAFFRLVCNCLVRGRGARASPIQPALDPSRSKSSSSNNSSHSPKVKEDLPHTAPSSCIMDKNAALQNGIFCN
# Edg-4 = Edg-4 (Homo sapiens, UniProt Q9HBW0); experiment: Intracellular calcium (FLIPR) assay, HTC cells expressing Edg-4; type: cell-based
# Sequence of Edg-4 (Q9HBW0 1-340 limits assumed): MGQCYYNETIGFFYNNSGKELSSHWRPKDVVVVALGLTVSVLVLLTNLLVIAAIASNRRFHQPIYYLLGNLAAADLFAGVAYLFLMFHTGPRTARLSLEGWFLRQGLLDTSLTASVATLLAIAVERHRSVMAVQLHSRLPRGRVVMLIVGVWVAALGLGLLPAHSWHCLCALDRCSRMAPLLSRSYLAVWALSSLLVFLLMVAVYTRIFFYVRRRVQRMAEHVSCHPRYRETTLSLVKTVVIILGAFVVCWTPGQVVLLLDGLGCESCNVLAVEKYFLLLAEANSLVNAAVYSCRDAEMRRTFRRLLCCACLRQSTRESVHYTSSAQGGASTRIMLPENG
# [3] = agonist, concentrations as high as 25 μM
# [4] = concentrations as high as 20 μM
smiles,measurement,setting,value
"COc1cc(C(=O)c2cc(Cl)ccc2N)cc(OC)c1OC [Compound 104, (2-Amino-5-chlorophenyl)-(3,4,5-trimethoxyphenyl)methanone]",Fold Selectivity,human Edg-1 receptors; agonist (Table 4),>2.5 Fold
same,EC50,Edg-6; agonist,> 25 µM
same,calcium response in HTC cells expressing Edg-6,Edg-6; [3],did not elicit a calcium response
same,migration of treated lymphocytes to exodus-2 in dorsal air-pouch,"[1]; CD4 T cells treated ex vivo, given intraperitoneally, S1P 1 μM",desensitizes the lymphocytes to attraction by exodus-2
same,EC50,Edg-2; agonist,> 25 µM
same,calcium response in HTC cells expressing Edg-2,Edg-2; [3],did not elicit a calcium response
same,EC50,Edg-8; agonist,> 25 µM
same,calcium response in HTC cells expressing Edg-8,Edg-8; [3],did not elicit a calcium response
same,EC50,Edg-5; agonist,> 25 µM
same,calcium response in HTC cells expressing Edg-5,Edg-5; [3],did not elicit a calcium response
same,potency of invasion stimulation relative to S1P,"[2]; HUVEC, FIG. 7",significantly less potent that S1P
same,stimulation of invasion of Human Umbilical Vein Endothelial cells,"[2]; concentrations between 0.5-100 μM, FIG. 7",stimulates invasion
same,EC50,Edg-3; agonist,> 25 µM
same,calcium response in HTC cells expressing Edg-3,Edg-3; [3],did not elicit a calcium response
same,EC50,Edg-4; agonist,> 25 µM
same,calcium response in HTC cells expressing Edg-4,Edg-4; [3],did not elicit a calcium response
O=C(c1cccnc1)N1N=C(c2ccc(Br)cc2)CC1(O)C(F)(F)F (stereo not shown) [Compound 102],Fold Selectivity,human Edg-1 receptors; inhibition (Table 2),>11.8 Fold
same,IC50,"Edg-6; Table 2, S1P-stimulated",> 20 µM
same,inhibition of S1P-stimulated calcium increases in HTC cells expressing Edg-6,Edg-6; [4],did not inhibit
same,reversal of S1P-mediated desensitization in dorsal air-pouch,[1]; co-treatment with S1P,can be reversed
same,IC50,"Edg-2; Table 2, LPA-stimulated",> 20 µM
same,inhibition of LPA-stimulated calcium increases in HTC cells expressing Edg-2,Edg-2; [4],did not inhibit
same,IC50,"Edg-8; Table 2, S1P-stimulated",> 20 µM
same,inhibition of S1P-stimulated calcium increases in HTC cells expressing Edg-8,Edg-8; [4],did not inhibit
same,IC50,"Edg-5; Table 2, S1P-stimulated",> 20 µM
same,inhibition of S1P-stimulated calcium increases in HTC cells expressing Edg-5,Edg-5; [4],did not inhibit
same,inhibition of S1P-induced matrigel invasion,"[2]; HUVEC, 10 μM (FIG. 6)",inhibits S1P-induced matrigel invasion
same,IC50,"Edg-3; Table 2, S1P-stimulated",> 20 µM
same,inhibition of S1P-stimulated calcium increases in HTC cells expressing Edg-3,Edg-3; [4],did not inhibit
same,IC50,"Edg-4; Table 2, LPA-stimulated",> 20 µM
same,inhibition of LPA-stimulated calcium increases in HTC cells expressing Edg-4,Edg-4; [4],did not inhibit
